Where two headings read alike, the source gives them in different places.
Assays:
[1] = molecular target: T1, α7-type neuronal nicotinic acetylcholine receptors (Rattus norvegicus, UniProt Q05941); assay: Inhibition of [3H]Methyllycaconitine (MLA) binding assay, rat brain membranes; details: for inhibition at 0.1 µM: read-out: Inhibition of [3H]MLA binding
T1 construct: from tissue; host or cells: rat brain membranes (whole brain without cortex, striatum and cerebellum)
Protocol: Rat brain was dissected into the whole brain tissue without cortex, striatum and cerebellum and was frozen in liquid nitrogen and stored at −70° C. until use. The brain tissue was homogenized with a Tekmar Polytron (setting 40) in 20 volumes of ice-cold hypotonic buffer (2 mM HEPES, 14.4 mM NaCl, 0.15 mM KCl, 0.2 mM CaCl2 and 0.1 mM MgSO4, pH=7.5). The homogenate was incubated at 37° C. for 10 minutes and centrifuged at 25,000 g for 15 minutes at […] The pellet was washed 3 times more by resuspension in 20 volumes of the same buffer and centrifugation at the above parameters. The final pellet was stored at −20° C. under 4.6 mL of the incubation buffer and was suspended just before the incubation with radioligand.
The binding of [^3H]MLA to probe α7-type neuronal nicotinic acetylcholine receptors was measured using a modification of the method of Davies at al., “Characterisation of the binding of [^3H]methyllycaconitine (MLA): a radioligand for labelling α7-type neuronal nicotinic acetylcholine receptors,” Neuropharmacology, 38, 679-690 (1999). [^3H]MLA (25.4 Ci/mmol) was purchased from Tocris Cookson Ltd., Bristol, U.K. Binding was performed in duplicate, in a final volume of 250 μL of the incubation medium, containing 20 mM HEPES, 144 mM NaCl, 1.5 mM KCl, 2 mM CaCl2, 1 mM MgSO4 and 0.05% BSA, pH=7.5. Reaction was initiated by the addition of 100 μL of membrane suspension to the samples containing a desired concentration of test compounds and […] [^3H]MLA (final concentration) and incubated for 2 hours it room temperature. Total binding was measured in the absence of unlabelled ligand, and nonspecific binding was determined by the presence of 1 μM unlabelled MLA. The binding reaction was terminated by dilution of samples with 3 mL of ice-cold incubation buffer followed by immediate filtration through glass fiber filters (S&S, grade #32, presoaked in 0.5% polyethylenimine) using a Brandel harvester system. Filters were rinsed three times with 3 mL of ice-cold buffer, transferred to scintillation vials and 4 mL of scintillation cocktail was added. Protein was measured using the Bradford dye-binding procedure with bovine serum albumin as the standard.
The tris-quaternary ammonium salts were evaluated for their ability to displace [^3H]MLA binding from rat brain membranes.
(§1) Data are % inhibition at 100 nM concentration of analog for at least 1-3 independent experiments. Specific binding in the [^3H]NIC binding assay is calculated at the difference between the total binding of [^3H]NIC and nonspecific binding in the presence of 10 μM cold nicotine. Specific binding for the [^3H]MLA binding assay is calculated as the difference between the total binding of 2.5 nM [^3H]MLA to the receptors alone and its nonspecific binding in the presence of 1 μM cold MLA. Analog-induced inhibition of nicotine-evoked [^3H]DA release is calculated as a percent of that in the absence of analog.

[2] = molecular target: T2, Rat Striatal Nicotinic Receptors (Rattus norvegicus, UniProt P09483+P12390); assay: Inhibition of [3H]Nicotine (NIC) binding assay, rat striatal membranes; details: % inhibition at 100 nM concentration of analog, 3 nM [3H]NIC
T2 construct: from tissue; host or cells: rat striatal membranes
Protocol: Striata from two rats were dissected, pooled, and homogenized with a Tekmar polytron in 10 vol of ice-cold modified Krebs-HEPES buffer (20 mM HEPES, 118 mM NaCl, 4.8 mM, KCl, 2.5 mM CaCl2, 1.2 mM MgSO4, adjusted to pH 7.5). The homogenates were incubated at 37° C. for 5 minutes and centrifuged at 15,000 g for 20 minutes. The pellet was resuspended in 10 volumes of ice-cold MilliQ water, incubated for 5 minutes at 37° C., and centrifuged at 15,000 g for 20 minutes. The second pellet was then resuspended in 10 volumes of fresh ice-cold 10% Krebs-HEPES buffer, incubated at 37° C., and centrifuged at 15,000 g for 20 minutes. The latter sequence of resuspension, incubation and centrifugation was repeated. The pellet was frozen under fresh 10% Krebs-HEPES buffer and stored at −40° C. until assay. Upon assay, the pellet was resuspended in Krebs-HEPES buffer, incubated at 37° C. for 5 minutes, and centrifuged at 15,000 g for 20 minutes. The final pellet was resuspended in 3.6 mL ice-cold MilliQ water which provided for approximately 200 μg protein per 100 μL aliquot. Competition assays were performed in duplicate in a final volume of 200 μL Krebs-HEPES buffer containing […] Tris buffer (pH 7.5 at 4° C.). Reactions were initiated by addition of 100 μL of membrane suspension to 3 nM [^3H]NIC (50 μL) and one of at least nine concentrations of analog (50 μL). After a 90 minute incubation at 4° C., reactions were terminated by dilution of the samples with 3 mL of ice-cold Krebs-HEPES buffer followed immediately by filtration through Whatman GF/B glass fiber filters (presoaked in 0.5% polyethyleneimine) using a Brandel Cell Harvester. Filters were rinsed three times with 3 mL of ice-cold Krebs-HEPES buffer, transferred to scintillation vials, and 5 mL scintillation cocktail (Research Products international Corp., Mt. Prospect, Ill.) added. Nonspecific binding determined in triplicate was defined as binding in the presence of 10 μM NIC. Binding parameters were determined using the weighted, least squares non-linear regression. The tris-quaternary ammonium salts were evaluated for their ability to displace [^3H]NIC binding from rat striatal membranes.
as §1

[3] = system: NIC-evoked [3H]DA release from rat striatal slices; assay: Nicotine-evoked [3H]dopamine release assay, superfused rat striatal slices; type: cell-based; details: 100 nM analog superfused 60 minutes prior to NIC (10 μM), percent of that in the absence of analog
Protocol: Rat striatal slices (500 μm thickness, 6-8 mg wet weight) were incubated for 30 minutes in Krebs buffer (118 mM NaCl, 4.7 mM KCl, 1.2 mM MgCl2, 1.0 mM NaH2PO4, 1.3 mM CaCl2, 11.1 mM glucose, 25 mM NaHCO3, 0.11 mM L-ascorbic acid and 0.004 mM disodium EDTA; pH 7.4, and saturated with 95% O2/5% CO2) in a metabolic shaker at 34° C. Slices were rinsed with 15 mL of fresh buffer and incubated for an additional 30 minutes in fresh buffer containing 0.1 μM [^3H]dopamine (DA; 6 slices/3 mL). Subsequently, slices were rinsed with 15 mL of fresh buffer and transferred to a glass superfusion chamber. Slices were superfused (1.0 mL/min) for 60 minutes with Krebs buffer containing nomifensine (10 μM) and pargyline (10 μM) and maintained at 34° C., pH 7.4 with continual aeration (95% O2/5% CO2). Two five minute samples (5 mL each) were collected to determine basal outflow of [^3H]DA. Analogs were added to the superfusion buffer after the collection of the second sample and remained in the buffer until 12 consecutive five minute samples were collected. Subsequently, S-(−)-nicotine (10 μM) was added to the buffer and an additional 12 consecutive five minute samples were collected. At the end of the experiment, each slice was solubilized and the [^3H] content of the tissue determined.
Radioactivity in the superfusate and tissue samples were determined by liquid scintillation spectroscopy. Fractional release for tritium collected in each sample was divided by the total tritium present at the time of sample collection and was expressed as a percentage of total tritium. Basal [^3H] outflow was calculated from the average of the tritium collected in the two five-minute samples just before addition of the analog. The sum of the increase in collected tritium resulting from either exposure to the test compound or exposure to S-(−)-nicotine in the absence cod presence of the test compound equaled total [^3H] overflow. [^3H] Overflow was calculated by subtracting the [^3H] outflow during an equivalent period of prestimulation from the values in samples collected during and after drug exposure. Inasmuch as the radiolabelled compounds were not separated and identified, the tritium in the superfusate is referred to as either [^3H] outflow or [^3H] overflow, rather than [^3H]DA. [^3H] Overflow primarily represents [^3H]DA in the presence of nomifesine and pargyline in the superfusion buffer. […]
Analogs were also evaluated for their ability to inhibit NIC evoked [^3H]DA release. In these experiments, the striatal slices were superfused for 60 minutes with 100 nM concentration of the analogs prior to NIC (10 μM) exposure. Antagonist activity was evaluated by comparing the NIC-evoked [^3H] overflow in the absence and presence of the analogs. The relative order of potency of the analogs for inhibition of NIC-evoked [^3H]DA release from rat striatal slices is illustrated in Table 1.
as §1

[4] = % inhibition at 100 nM concentration of analog, rat brain membranes, 2.5 nM [3H]MLA

T1 sequence (Q05941 23-502): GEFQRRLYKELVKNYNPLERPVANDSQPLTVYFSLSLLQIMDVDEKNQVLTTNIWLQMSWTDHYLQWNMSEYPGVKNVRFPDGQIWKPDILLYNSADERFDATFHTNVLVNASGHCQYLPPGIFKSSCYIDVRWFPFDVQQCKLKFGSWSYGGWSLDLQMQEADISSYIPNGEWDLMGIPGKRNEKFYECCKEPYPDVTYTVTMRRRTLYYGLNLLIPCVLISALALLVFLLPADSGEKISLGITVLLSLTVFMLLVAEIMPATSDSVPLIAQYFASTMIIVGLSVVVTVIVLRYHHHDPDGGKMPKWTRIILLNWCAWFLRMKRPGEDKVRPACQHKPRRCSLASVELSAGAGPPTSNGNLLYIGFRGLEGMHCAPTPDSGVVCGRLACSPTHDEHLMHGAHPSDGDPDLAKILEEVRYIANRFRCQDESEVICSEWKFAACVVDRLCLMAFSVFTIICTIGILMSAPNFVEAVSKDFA
T2 sequence (P09483 31-630): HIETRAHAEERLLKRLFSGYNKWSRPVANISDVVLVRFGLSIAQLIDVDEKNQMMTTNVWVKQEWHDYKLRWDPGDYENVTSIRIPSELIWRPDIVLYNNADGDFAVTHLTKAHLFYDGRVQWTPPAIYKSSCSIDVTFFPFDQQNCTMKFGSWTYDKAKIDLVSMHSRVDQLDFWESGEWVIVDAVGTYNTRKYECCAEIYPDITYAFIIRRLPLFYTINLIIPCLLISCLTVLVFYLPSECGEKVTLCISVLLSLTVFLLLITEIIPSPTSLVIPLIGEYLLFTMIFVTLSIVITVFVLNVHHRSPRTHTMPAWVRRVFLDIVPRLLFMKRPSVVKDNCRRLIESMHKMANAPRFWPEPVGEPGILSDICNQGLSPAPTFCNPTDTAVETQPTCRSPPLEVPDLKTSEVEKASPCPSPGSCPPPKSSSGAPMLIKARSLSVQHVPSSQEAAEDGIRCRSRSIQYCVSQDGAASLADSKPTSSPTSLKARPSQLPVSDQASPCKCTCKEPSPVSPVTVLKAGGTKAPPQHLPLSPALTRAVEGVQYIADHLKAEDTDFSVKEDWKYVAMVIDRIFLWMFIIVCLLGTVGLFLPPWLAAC
T2 sequence (P12390 25-500): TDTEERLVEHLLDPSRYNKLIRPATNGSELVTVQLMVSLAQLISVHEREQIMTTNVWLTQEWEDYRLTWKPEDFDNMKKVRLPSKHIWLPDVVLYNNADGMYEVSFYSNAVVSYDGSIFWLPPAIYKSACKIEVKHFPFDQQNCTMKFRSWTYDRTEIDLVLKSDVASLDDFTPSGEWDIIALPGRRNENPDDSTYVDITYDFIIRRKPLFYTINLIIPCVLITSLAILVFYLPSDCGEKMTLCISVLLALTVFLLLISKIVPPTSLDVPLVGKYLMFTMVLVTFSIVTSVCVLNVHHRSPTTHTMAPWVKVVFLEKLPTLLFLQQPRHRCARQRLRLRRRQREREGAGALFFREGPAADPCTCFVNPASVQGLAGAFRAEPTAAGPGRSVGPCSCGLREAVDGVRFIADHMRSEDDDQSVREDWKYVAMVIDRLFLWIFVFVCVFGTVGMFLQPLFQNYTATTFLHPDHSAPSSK

| Compound | inhibition at 0.1 µM [1, 4] [%] | inhibition at 0.1 µM [2] [%] | inhibition at 0.1 µM [3] [%] | inhibition at 0.1 µM [1] [%] | Ki ([1]; read-out: K1 value, displacement of [3H]MLA binding) [nM] |
| --- | --- | --- | --- | --- | --- |
| Cc1ccc[n+](CCCC#Cc2cc(C#CCCC[n+]3cccc(C)c3)cc(C#CCCC[n+]3cccc(C)c3)c2)c1 [GZ550A, 1,3,5-tris-[5-(3-picolinium)-pent-1-ynyl]-benzene tribromide] | 0 | 10 ± 1.9 | 46 | – | – |
| C(#Cc1cc(C#CCCC[n+]2cccc(-c3ccccc3)c2)cc(C#CCCC[n+]2cccc(-c3ccccc3)c2)c1)CCC[n+]1cccc(-c2ccccc2)c1 [GZ550B, 1,3,5-tris-[5-(3-phenyl-pyridinium)-pent-1-ynyl]-benzene tribromide] | 39 ± 2.2 | 15 ± 0.9 | 49 | – | – |
| C(#Cc1cc(C#CCCC[n+]2cccc3ccccc32)cc(C#CCCC[n+]2cccc3ccccc32)c1)CCC[n+]1cccc2ccccc21 [GZ552A, 1,3,5-tris-[5-(1-quinolinium)-pent-1-ynyl]-benzene tribromide] | 21 ± 6 | 7 ± 3.8 | 72 | – | – |
| C(#Cc1cc(C#CCCC[n+]2ccc3ccccc3c2)cc(C#CCCC[n+]2ccc3ccccc3c2)c1)CCC[n+]1ccc2ccccc2c1 [GZ552B, 1,3,5-tris-[5-(2-isoquinolinium)-pent-1-ynyl]-benzene tribromide] | 4.5 ± 2.6 | 9.2 ± 5 | 49 | – | – |
| Cc1cc(C)c[n+](CCCC#Cc2cc(C#CCCC[n+]3cc(C)cc(C)c3)cc(C#CCCC[n+]3cc(C)cc(C)c3)c2)c1 [GZ553A, 1,3,5-tris-[5-(3,5-lutidinium)-pent-1-ynyl]-benzene tribromide] | 0 | 8.9 ± 2.9 | 31 | – | – |
| Cc1cc[n+](CCCC#Cc2cc(C#CCCC[n+]3ccc(C)c(C)c3)cc(C#CCCC[n+]3ccc(C)c(C)c3)c2)cc1C [GZ553B, 1,3,5-tris-[5-(3,4-lutidinium)-pent-1-ynyl]-benzene tribromide] | 1.8 ± 1.8 | 4 ± 1.4 | 0 | – | – |
| Cc1cccc[n+]1CCCC#Cc1cc(C#CCCC[n+]2ccccc2C)cc(C#CCCC[n+]2ccccc2C)c1 [GZ554A, 1,3,5-tris-[5-(2-picolinium)-pent-1-ynyl]-benzene tribromide] | 0 | 4.5 ± 2 | 68 | – | – |
| Cc1cc[n+](CCCC#Cc2cc(C#CCCC[n+]3ccc(C)cc3)cc(C#CCCC[n+]3ccc(C)cc3)c2)cc1 [GZ554B, 1,3,5-tris-[5-(4-picolinium)-pent-1-ynyl]-benzene tribromide] | 0 | 21 ± 4.5 | 34 | – | – |
| Cc1ccc[n+](CCCCCc2cc(CCCCC[n+]3cccc(C)c3)cc(CCCCC[n+]3cccc(C)c3)c2)c1 [GZ555A, 1,3,5-tris-[5-(3-picolinium)-pentyl]-benzene tribromide] | 1.2 ± 1.2 | 14 ± 6.1 | 42 | – | – |
| Cc1cccc[n+]1CCCCCc1cc(CCCCC[n+]2ccccc2C)cc(CCCCC[n+]2ccccc2C)c1 [GZ555B, 1,3,5-tris-[5-(2-picolinium)-pentyl]-benzene tribromide] | 0 | 8.6 ± 7.2 | 25 | – | – |
| Cc1cc[n+](CCCCCc2cc(CCCCC[n+]3ccc(C)cc3)cc(CCCCC[n+]3ccc(C)cc3)c2)cc1 [GZ555C, 1,3,5-tris-[5-(4-picolinium)-pentyl]-benzene tribromide] | 0 | 6 ± 3.4 | 37 ± 17 | – | – |
| c1ccc2c(c1)ccc[n+]2CCCCCc1cc(CCCCC[n+]2cccc3ccccc32)cc(CCCCC[n+]2cccc3ccccc32)c1 [GZ556A, 1,3,5-tris-[5-(1-quinolinium)-pentyl]-benzene tribromide] | – | 5.7 ± 5.7 | 8 ± 6.4 | 6.8 ± 0.9 | – |
| c1ccc2c[n+](CCCCCc3cc(CCCCC[n+]4ccc5ccccc5c4)cc(CCCCC[n+]4ccc5ccccc5c4)c3)ccc2c1 [GZ556B, 1,3,5-tris-[5-(2-isoquinolinium)-pentyl]-benzene tribromide] | 2.5 ± 1.5 | 8.4 ± 7.6 | 28 ± 11 | – | – |
| α-bungarotoxin [reference compound] | – | – | – | – | 28.6 ± 5.4 |
